In US6969708B1, “Process for the preparation of a high purity composition comprising (7α, 17α)- 17-hydroxy- 7-methyl- 19-nor-17-pregn-5(10)-en-20-yn-3-one” (Akzo Nobel N.V., priority 1998, dated 2005):

Experiment: Stress test at 45° C. of bulk Tibolone crystals (increase of Org OM38)
Type: physicochemical
Experimental: A solution of (7α, 17α)-3,3-dimethoxy-17-hydroxy-7-methyl-19-norpregn-5(10)-en20-yn-3-one (15 kg) in a mixture of pyridine (630 ml) and ethanol (315 liters) was mixed with a solution of oxalic acid (750 gr) in water (90 liters) and the mixture was stirred for 2 hours at approximately 30° C. The solution was poured out in a mixture of pyridine (1350 ml) and water (300 liters) and the resulting suspension was filtered. The crystals were washed with a mixture of water and pyridine and dried under vacuum at 40° C. to give (7α, 17α)-17-hydroxy-7-methyl-19-norpregn-5(10)-en-20-yn-3-one containing 0.6% of the corresponding (7α, 17α)-17-hydroxy-7-methyl-19-norpregn-4-en-20-yn-3-one as indicated by HPLC analysis; a stress test at 45° C. (duration 1 month) indicated a 0.4% increase of the latter compound.
A solution of (7α, 17α)-3,3-dimethoxy-17-hydroxy-7-methyl-19-norpregn-5(10)-en-20-yn-3-one (15 kg) in a mixture of pyridine (630 ml) and ethanol (315 liters) was mixed with a solution of oxalic acid (375 gr) in water (90 liters) and the mixture was stirred for 3 hours at approximately 30° C. The solution was poured out in a mixture of pyridine (1350 ml) and water (300 liters) and the resulting suspension is filtered. The crystals are washed with a mixture of water and pyridine and allowed to age for 3–6 days at room temperature. Subsequently, the crystals were dried under vacuum at 40° C. to give (7α, 17α)-17-hydroxy-7-methyl-19-norpregn-5(10)-en-20-yn-3-one containing≦0.1% of the corresponding (7α, 17α)-17-hydroxy-7-methyl-19-norpregn-4-en-20-yn-3-one as indicated by HPLC analysis; a stress test at 45° C. (duration 1 week) indicated a<0.1% increase of the latter compound.
The preparation as described in example 2 was repeated. (7α, 17α)-17-hydroxy-7-methyl-19-norpregn-5(10)-en-20-yn-3-one was obtained which contained 0.2% of the corresponding. (7α, 17α)-17-hydroxy-7-methyl-19-norpregn-4-en-20-yn-3-one as indicated by HPLC analysis; a stress test at 45° C. (duration 1 week) indicated a 0.1% increase of the latter compound.

| SMILES | increase of (7α, 17α)-17-hydroxy-7-methyl-19-norpregn-4-en-20-yn-3-one in stress test (duration 1 week) [%] | increase of (7α, 17α)-17-hydroxy-7-methyl-19-norpregn-4-en-20-yn-3-one in stress test (duration 1 month) [%] |
| --- | --- | --- |
| C#C[C@]1(O)CCC2C3C(CCC21C)C1=C(CC(=O)CC1)C[C@H]3C (single isomer, unassigned) [Example 2, (7α, 17α)-17-hydroxy-7-methyl-19-norpregn-5(10)-en-20-yn-3-one] | < 0.1 | – |
| C#C[C@]1(O)CCC2C3C(CCC21C)C1=C(CC(=O)CC1)C[C@H]3C (stereo partly drawn) [Example 1, (7α, 17α)-17-hydroxy-7-methyl-19-norpregn-5(10)-en-20-yn-3-one] | – | 0.4 |
| C#C[C@]1(O)CCC2C3C(CCC21C)C1=C(CC(=O)CC1)C[C@H]3C (single isomer, unassigned) [Example 3, (7α, 17α)-17-hydroxy-7-methyl-19-norpregn-5(10)-en-20-yn-3-one] | 0.1 | – |
